# Laboratory results taken from PubChem BioAssay (NCI).
#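 Tested at 5 concentrations; 48 h exposure; 96-well plates; endpoints linearly interpolated, else capped at highest concentration. GI50 marks 50% less growth. The concentration for full growth arrest is given as TGI.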
# Tests used:
# Experiment in all cases: DTP human tumour cell line panel, 48 h
# SR leukemia = tested on: SR leukemia
# SK-MEL-28 melanoma = tested on: SK-MEL-28 melanoma
# COLO 205 colon = tested on: COLO 205 colon
# ACHN renal = tested on: ACHN renal
# LXFL 529 NSCLC = tested on: LXFL 529 NSCLC
# NCI-H23 lung = tested on: NCI-H23 lung
# U251 CNS = tested on: U251 CNS
# MOLT-4 leukemia = tested on: MOLT-4 leukemia
# OVCAR-8 ovarian = tested on: OVCAR-8 ovarian
# K-562 leukemia = tested on: K-562 leukemia
# HOP-18 NSCLC = tested on: HOP-18 NSCLC
# NCI-H226 lung = tested on: NCI-H226 lung
# A549 NSCLC = tested on: A549 NSCLC
# SW-620 colon = tested on: SW-620 colon
# DLD-1 colon = tested on: DLD-1 colon
# SF-295 CNS = tested on: SF-295 CNS
# SK-OV-3 ovarian = tested on: SK-OV-3 ovarian
# UACC-62 melanoma = tested on: UACC-62 melanoma
# SF-268 CNS = tested on: SF-268 CNS
# HCC-2998 colon = tested on: HCC-2998 colon
# KM12 colon = tested on: KM12 colon
# UO-31 renal = tested on: UO-31 renal
# SNB-75 CNS = tested on: SNB-75 CNS
# SNB-19 CNS = tested on: SNB-19 CNS
# SK-MEL-5 melanoma = tested on: SK-MEL-5 melanoma
# IGROV1 ovarian = tested on: IGROV1 ovarian
# OVCAR-5 ovarian = tested on: OVCAR-5 ovarian
# HT29 colon = tested on: HT29 colon
# NCI-H460 lung = tested on: NCI-H460 lung
# HCT-116 colon = tested on: HCT-116 colon
# HOP-62 NSCLC = tested on: HOP-62 NSCLC
# SF-539 CNS = tested on: SF-539 CNS
# M19-MEL melanoma = tested on: M19-MEL melanoma
# TK-10 renal = tested on: TK-10 renal
# NCI-H522 lung = tested on: NCI-H522 lung
# HOP-92 NSCLC = tested on: HOP-92 NSCLC
# OVCAR-3 ovarian = tested on: OVCAR-3 ovarian
# HL-60(TB) leukemia = tested on: HL-60(TB) leukemia
# CCRF-CEM leukemia = tested on: CCRF-CEM leukemia
# RPMI-8226 leukemia = tested on: RPMI-8226 leukemia
# UACC-257 melanoma = tested on: UACC-257 melanoma
# HCT-15 colon = tested on: HCT-15 colon
# EKVX NSCLC = tested on: EKVX NSCLC
# DMS 273 small cell lung = tested on: DMS 273 small cell lung
# KM20L2 colon = tested on: KM20L2 colon
# RXF 393 renal = tested on: RXF 393 renal
# A498 renal = tested on: A498 renal
# M14 melanoma = tested on: M14 melanoma
# CAKI-1 renal = tested on: CAKI-1 renal
# 786-0 renal = tested on: 786-0 renal
# DMS 114 small cell lung = tested on: DMS 114 small cell lung
# MALME-3M melanoma = tested on: MALME-3M melanoma
# SN12C renal = tested on: SN12C renal
# SK-MEL-2 melanoma = tested on: SK-MEL-2 melanoma
# OVCAR-4 ovarian = tested on: OVCAR-4 ovarian
# SNB-78 CNS = tested on: SNB-78 CNS
# XF 498 CNS = tested on: XF 498 CNS
structure (smiles),measurement,setting,value
COc1ccc(/C=N/n2cnc3c(c2=O)SC(=C(C#N)C#N)N3c2ccccc2)cc1,TGI,SR leukemia,> 100 µM
same,TGI,SK-MEL-28 melanoma,> 100 µM
same,TGI,COLO 205 colon,> 100 µM
same,TGI,ACHN renal,> 100 µM
same,TGI,LXFL 529 NSCLC,> 100 µM
same,TGI,NCI-H23 lung,> 100 µM
same,TGI,U251 CNS,> 100 µM
same,TGI,MOLT-4 leukemia,> 100 µM
same,TGI,OVCAR-8 ovarian,> 100 µM
same,TGI,K-562 leukemia,> 100 µM
same,TGI,HOP-18 NSCLC,> 100 µM
same,TGI,NCI-H226 lung,> 100 µM
same,TGI,A549 NSCLC,> 100 µM
same,TGI,SW-620 colon,> 100 µM
same,TGI,DLD-1 colon,> 100 µM
same,TGI,SF-295 CNS,> 100 µM
same,TGI,SK-OV-3 ovarian,> 100 µM
same,TGI,UACC-62 melanoma,> 100 µM
same,TGI,SF-268 CNS,> 100 µM
same,TGI,HCC-2998 colon,> 100 µM
same,TGI,KM12 colon,> 100 µM
same,TGI,UO-31 renal,> 100 µM
same,TGI,SNB-75 CNS,72.4 µM
same,TGI,SNB-19 CNS,> 100 µM
same,TGI,SK-MEL-5 melanoma,> 100 µM
same,TGI,IGROV1 ovarian,> 100 µM
same,TGI,OVCAR-5 ovarian,> 100 µM
same,TGI,HT29 colon,> 100 µM
same,TGI,NCI-H460 lung,> 100 µM
same,TGI,HCT-116 colon,> 100 µM
same,TGI,HOP-62 NSCLC,> 100 µM
same,TGI,SF-539 CNS,> 100 µM
same,TGI,M19-MEL melanoma,> 100 µM
same,TGI,TK-10 renal,> 100 µM
same,TGI,NCI-H522 lung,> 100 µM
same,TGI,HOP-92 NSCLC,> 100 µM
same,TGI,OVCAR-3 ovarian,> 100 µM
same,TGI,HL-60(TB) leukemia,> 100 µM
same,TGI,CCRF-CEM leukemia,> 100 µM
same,TGI,RPMI-8226 leukemia,> 100 µM
same,TGI,UACC-257 melanoma,> 100 µM
CCC[CH2][Sn]1([CH2]CCC)[O]CC(COc2c(Cl)cc(Cl)cc2Cl)[O]1 (centres undefined),GI50,HCT-15 colon,1.66 µM
same,TGI,HCT-15 colon,3.31 µM
same,GI50,SK-MEL-28 melanoma,1.39 µM
same,TGI,SK-MEL-28 melanoma,2.82 µM
same,GI50,COLO 205 colon,1.39 µM
same,TGI,COLO 205 colon,2.75 µM
same,GI50,ACHN renal,1.77 µM
same,TGI,ACHN renal,3.17 µM
same,GI50,LXFL 529 NSCLC,0.375 µM
same,TGI,LXFL 529 NSCLC,1.58 µM
same,GI50,NCI-H23 lung,1.11 µM
same,TGI,NCI-H23 lung,2.69 µM
same,GI50,U251 CNS,0.845 µM
same,TGI,U251 CNS,2.18 µM
same,GI50,OVCAR-8 ovarian,1.12 µM
same,TGI,OVCAR-8 ovarian,2.37 µM
same,GI50,HOP-18 NSCLC,1.41 µM
same,TGI,HOP-18 NSCLC,2.71 µM
same,GI50,NCI-H226 lung,1.82 µM
same,TGI,NCI-H226 lung,3.82 µM
same,GI50,A549 NSCLC,5.15 µM
same,TGI,A549 NSCLC,17.7 µM
same,GI50,SW-620 colon,1.13 µM
same,TGI,SW-620 colon,2.62 µM
same,GI50,EKVX NSCLC,5.51 µM
same,TGI,EKVX NSCLC,17.3 µM
same,GI50,DLD-1 colon,1.49 µM
same,TGI,DLD-1 colon,2.95 µM
same,GI50,SF-295 CNS,1.9 µM
same,TGI,SF-295 CNS,3.37 µM
same,GI50,DMS 273 small cell lung,1.78 µM
same,TGI,DMS 273 small cell lung,3.44 µM
same,GI50,SK-OV-3 ovarian,4.18 µM
same,TGI,SK-OV-3 ovarian,12.3 µM
same,GI50,KM20L2 colon,2.98 µM
same,TGI,KM20L2 colon,10.7 µM
same,GI50,UACC-62 melanoma,1.48 µM
same,TGI,UACC-62 melanoma,2.86 µM
same,GI50,SF-268 CNS,1.15 µM
same,TGI,SF-268 CNS,2.68 µM
same,GI50,HCC-2998 colon,1.51 µM
same,TGI,HCC-2998 colon,2.95 µM
same,GI50,KM12 colon,1.8 µM
same,TGI,KM12 colon,3.54 µM
same,GI50,UO-31 renal,1.68 µM
same,TGI,UO-31 renal,3.21 µM
same,GI50,SNB-75 CNS,1.17 µM
same,TGI,SNB-75 CNS,3.77 µM
same,GI50,SNB-19 CNS,1.35 µM
same,TGI,SNB-19 CNS,2.64 µM
same,GI50,IGROV1 ovarian,1.8 µM
same,TGI,IGROV1 ovarian,3.46 µM
same,GI50,RXF 393 renal,1.27 µM
same,TGI,RXF 393 renal,2.73 µM
same,GI50,A498 renal,1.31 µM
same,TGI,A498 renal,2.65 µM
same,GI50,OVCAR-5 ovarian,2.02 µM
same,TGI,OVCAR-5 ovarian,3.46 µM
same,GI50,M14 melanoma,1.72 µM
same,TGI,M14 melanoma,3.13 µM
same,GI50,HT29 colon,2.09 µM
same,TGI,HT29 colon,4.19 µM
same,GI50,NCI-H460 lung,2.67 µM
same,TGI,NCI-H460 lung,7.98 µM
same,GI50,HCT-116 colon,1.67 µM
same,TGI,HCT-116 colon,3.03 µM
same,GI50,CAKI-1 renal,0.511 µM
same,TGI,CAKI-1 renal,1.65 µM
same,GI50,786-0 renal,1.41 µM
same,TGI,786-0 renal,2.74 µM
same,GI50,DMS 114 small cell lung,0.403 µM
same,TGI,DMS 114 small cell lung,1.58 µM
same,GI50,HOP-62 NSCLC,2.63 µM
same,TGI,HOP-62 NSCLC,7.97 µM
same,GI50,SF-539 CNS,1.64 µM
same,TGI,SF-539 CNS,3.43 µM
same,GI50,MALME-3M melanoma,1.06 µM
same,TGI,MALME-3M melanoma,2.34 µM
same,GI50,SN12C renal,1.75 µM
same,TGI,SN12C renal,3.27 µM
same,GI50,M19-MEL melanoma,0.941 µM
same,TGI,M19-MEL melanoma,2.22 µM
same,GI50,SK-MEL-2 melanoma,0.58 µM
same,TGI,SK-MEL-2 melanoma,1.91 µM
same,GI50,HOP-92 NSCLC,1.55 µM
same,TGI,HOP-92 NSCLC,3.06 µM
same,GI50,OVCAR-3 ovarian,1.65 µM
same,TGI,OVCAR-3 ovarian,3.03 µM
same,TGI,HL-60(TB) leukemia,0.673 µM
same,GI50,RPMI-8226 leukemia,0.78 µM
same,TGI,RPMI-8226 leukemia,3.72 µM
same,GI50,OVCAR-4 ovarian,1.91 µM
same,TGI,OVCAR-4 ovarian,3.76 µM
same,GI50,UACC-257 melanoma,1.11 µM
same,TGI,UACC-257 melanoma,2.33 µM
same,GI50,SNB-78 CNS,0.962 µM
same,TGI,SNB-78 CNS,3.49 µM
COc1cc2c(cc1OC)C1Cc3cc(OC)c(OC)cc3N1CC2 (centres undefined),TGI,SR leukemia,> 100 µM
same,TGI,SK-MEL-28 melanoma,> 100 µM
same,TGI,COLO 205 colon,52.1 µM
same,TGI,ACHN renal,43 µM
same,TGI,LXFL 529 NSCLC,61.1 µM
same,TGI,NCI-H23 lung,> 100 µM
same,TGI,U251 CNS,> 100 µM
same,TGI,MOLT-4 leukemia,> 100 µM
same,TGI,OVCAR-8 ovarian,> 100 µM
same,TGI,K-562 leukemia,> 100 µM
same,TGI,NCI-H226 lung,47.9 µM
same,TGI,A549 NSCLC,79.9 µM
same,TGI,SW-620 colon,> 100 µM
same,TGI,EKVX NSCLC,89.5 µM
same,TGI,DLD-1 colon,> 100 µM
same,TGI,SF-295 CNS,> 100 µM
same,TGI,SK-OV-3 ovarian,> 100 µM
same,TGI,KM20L2 colon,> 100 µM
same,TGI,UACC-62 melanoma,> 100 µM
same,TGI,SF-268 CNS,> 100 µM
same,TGI,HCC-2998 colon,> 100 µM
same,TGI,KM12 colon,> 100 µM
same,TGI,UO-31 renal,86 µM
same,TGI,SNB-75 CNS,56.2 µM
same,TGI,XF 498 CNS,43.6 µM
same,TGI,SNB-19 CNS,> 100 µM
same,TGI,IGROV1 ovarian,> 100 µM
same,TGI,A498 renal,> 100 µM
same,TGI,OVCAR-5 ovarian,> 100 µM
same,TGI,M14 melanoma,53.4 µM
same,TGI,HT29 colon,> 100 µM
same,TGI,NCI-H460 lung,> 100 µM
same,TGI,HCT-116 colon,> 100 µM
same,TGI,CAKI-1 renal,88.5 µM
same,TGI,786-0 renal,37.9 µM
same,TGI,DMS 114 small cell lung,37.5 µM
same,TGI,HOP-62 NSCLC,84.9 µM
same,TGI,MALME-3M melanoma,54.4 µM
same,TGI,SN12C renal,> 100 µM
same,TGI,M19-MEL melanoma,80.5 µM
same,TGI,TK-10 renal,50.5 µM
same,TGI,NCI-H522 lung,35 µM
same,TGI,SK-MEL-2 melanoma,> 100 µM
same,TGI,HOP-92 NSCLC,> 100 µM
same,TGI,OVCAR-3 ovarian,> 100 µM
same,TGI,HL-60(TB) leukemia,53.2 µM
same,TGI,CCRF-CEM leukemia,> 100 µM
same,TGI,RPMI-8226 leukemia,88 µM
same,TGI,OVCAR-4 ovarian,57.7 µM
same,TGI,UACC-257 melanoma,> 100 µM
same,TGI,SNB-78 CNS,> 100 µM
